The values below come from patent US20020151568A1, “Piperidinylethyl-, phenoxyethyl-, and beta-fluorophenethyl-substituted thiourea compounds with potent anti-HIV activity” (priority 2000, published 2002).

For orientation: IC50 means the point on the concentration scale where inhibition reaches its midpoint. What is called melting point is the temperature, or range, at which the solid turns liquid.

One data set concerns HIV-1 strain HTLVIIIB
As to the kind of experiment: Inhibition of HIV-1 HTLVIIIB replication in PBMC (p24 antigen EIA). The class given is cell-based. The note with it: HIV-1 strain HTLVIIIB in human PBMC, p24 EIA on 7th day after infection; for IC50: read-out: IC50 [HTL VIIIB]. On the procedure: The cells were then infected with virus at a multiplicity of infection (MOI) of 0.1 during a one-hour adsorption period at 37° C. in a humidified 5% CO2 atmosphere. Subsequently, cells were cultured in 96-well microplates (100 μL/well; 2×10^6 cells/mL, triplicate wells) in the presence of various inhibitor concentrations. […] Ag. […] The applied p24 EIA was the unmodified kinetic assay commercially available from Coulter Corporation/Immunotech, Inc. (Westbrook, Me.).
To test the therapeutic activity of the compounds of the invention, p24 assays were utilized as previously described. […] 1 during a one-hour adsorption period at 37° C. in a humidified 5% CO2 atmosphere. Subsequently, cells were cultured in 96-well microliter plates ([…]; 2×10^6 cells/mL, triplicate wells) in the presence of various inhibitor concentrations. Aliquots of culture supernatants were removed from the wells on the 7th day after infection for p24 antigen p24 enzyme immunoassays (EIA).
The applied p24 EIA was the unmodified kinetic assay commercially available from Coulter Corporation/Immunotech, Inc. (Westbrooke, Me.), which utilizes a murine monoclonal antibody to HIV core protein coated onto microwell strips to which the antigen present in the test culture supernatant samples binds. Percent inhibition of viral replication was calculated by comparing the p24 values from the test substance treated infected cells with p24 values from untreated infected cells (i.e., virus controls).

For data set [1], the system named is human peripheral blood mononuclear cells (PBMC). As to the kind of experiment: Microculture Tetrazolium Assay (MTA, XTT) for cell viability of non-infected PBMC. In kind it is cell-based. The note with it: 7 days, read-out: CC (cytotoxic concentration, CC50). On the procedure:
In parallel, the effects of various treatments on cell viability were also examined, as described in Enrice et.al., supra. In brief, non-infected PBNWC were treated with each compound for 7 days under identical experimental conditions. A Microculture Tetrazolium Assay (MTA), using 2,3-bis(2-methoxy-4nitro-5-sulfophenyl)-5-[(phenylarnino)-carbonyl]-2H-tetrazolium hydroxide (XTT), was performed to quantitate cellular proliferation.
(Tetrazolium assays rely on reduction of a dye to a coloured formazan, in cell work by metabolically active cells.)

Data set [2] concerns HIV-1 strain RT-MDR (V106A). As to the kind of experiment: Inhibition of replication of NNI-resistant HIV-1 strain RT-MDR in H9 cells. The class given is cell-based. Here is the method: (§1) The ability of Compounds 4 (HI-516), 11 (HI-566), and 12 (HI-565) to inhibit the replication of NNI-resistant HIV-1 strains, A17 (Y181C) and RT-MDR (V106A), was analyzed. The anti-HIV activity of the compounds was measured by determining their ability to inhibit the replication of HIV-1 strains A17 in PBMC from healthy volunteer donors and RT-MDR in H9 cells.
(§2) Compounds 4, 11, and 12 were compared with nevirapine or delavirdine, two known non-nucleoside reverse transcriptase inhibitors of HIV-1 RT.

The test system of the next data set is HIV-1 strain A17 (Y181C). As to the kind of experiment: Inhibition of replication of NNI-resistant HIV-1 strain A17 in PBMC. The note with it: for IC50: read-out: IC50 A17 (Y181C). The class given is cell-based. Here is the method: as §1, §2
The mark [3] stands for this setting: RT-MDR in H9 cells, read-out: IC50 RT-MDR (V106A).
The mark [4] stands for this setting: A17 in PBMC from healthy volunteer donors.
[5] abbreviates: Human immunodeficiency virus 1, H9, read-out: IC50 RT-MDR (V106A).
[6] abbreviates: Human immunodeficiency virus 1, PBMC.

Where two headings read alike, the source gives them in different places. Bounds are passed on as bounds.

As to `S=C(NCCN1CCCCC1)Nc1ccc(Br)cn1` [Compound 2, N-[2-(1-piperidinylethyl)]-N′-[2-(5-bromopyridyl)]-thiourea], in the data set with HIV-1 strain HTLVIIIB, the “IC50 [HTL VIIIB]” value was “nanomolar concentrations” and the half-maximal inhibitory concentration (IC50) stood at 2 nM.

With `S=C(NCCN1CCCCC1)Nc1ccc(Cl)cn1` [Compound 5, N-[2-(1-piperidinylethyl)]-N′-[2-(5-chloropyridyl)]-thiourea], in the data set with HIV-1 strain HTLVIIIB, the “IC50 [HTL VIIIB]” value was “nanomolar concentrations” and the concentration for half-maximal inhibition (IC50) was found to be 1 nM.

`CC1CCCN(CCNC(=S)Nc2ccc(Cl)cn2)C1` (stereo not drawn) [Compound 6, N-[2-(3-methylpiperidinylethyl)]-N′-[2-(5-chloropyridyl)]-thiourea]: in the data set with HIV-1 strain HTLVIIIB, the half-maximal inhibitory concentration (IC50) came to 20 nM.

With `S=C(NCCN1CCCCC1)Nc1ccccn1` [Compound 1], the IC50 in the data set with HIV-1 strain HTLVIIIB was more than 100000 nM.

Regarding `S=C(NCCOc1ccccc1)Nc1ccc(Br)cn1` [Compound 10, N-[2-(Phenoxy)ethyl]-N′-[2-(5-bromopyridyl)] thiourea], in the data set on HIV-1 strain HTLVIIIB, the IC50 turned out to be 5 nM. Further, the CC50 in data set [1] turned out to be 92000 nM.

`FC(CNC(=S)Nc1ccc(Cl)cn1)c1ccccc1` (stereo not drawn) [Compound 11, β-Fluoro[2-phenethyl]-N′-[2-(5-chloropyridyl)] thiourea]: the “IC50 RT-MDR (V106A)” value in data set [2] (RT-MDR in H9 cells) was “submicromolar”. In addition, the IC50 was 100 nM in data set [2] (setting [3]), 100 nM in the data set with HIV-1 strain A17 (Y181C) (setting [4]) and less than 1 nM in the data set with HIV-1 strain HTLVIIIB. The “IC50 [HTL VIIIB]” value with HIV-1 strain HTLVIIIB is recorded as “subnanomolar”. Also, in data set [1], the CC50 worked out at 30000 nM.

Take `CC(C)Nc1cccnc1N1CCN(C(=O)c2cc3cc(NS(C)(=O)=O)ccc3[nH]2)CC1` [Delavirdine, reference compound]: the IC50 in data set [2] (setting [5]) came out at 400 nM; in the data set with HIV-1 strain A17 (Y181C) (setting [6]), 50000 nM.

On to `S=C(NCCOc1ccccc1)Nc1ccc(Cl)cn1` [Compound 9, N-[2-(Phenoxy)ethyl]-N′-[2-(5-chloropyridyl)]thiourea], for which the half-inhibitory concentration (IC50) with HIV-1 strain HTLVIIIB came to 4 nM. For the same compound, the CC50 in data set [1] is more than 100000 nM.

Take `FC(CNC(=S)Nc1ccc(Br)cn1)c1ccccc1` (stereo not drawn) [Compound 12, β-Fluoro[2-phenethyl]-N′-[2-(5-bromopyridyl)]thiourea]: the “IC50 RT-MDR (V106A)” value in data set [2] (RT-MDR in H9 cells) is given as “submicromolar”. For the same compound, the IC50 in data set [2] (setting [3]) is 200 nM; in the data set on HIV-1 strain A17 (Y181C) (setting [4]), 100 nM; in the data set with HIV-1 strain HTLVIIIB, less than 1 nM. In the data set with HIV-1 strain HTLVIIIB, the “IC50 [HTL VIIIB]” value is reported as “subnanomolar”. Further, the CC50 in data set [1] stood at 50000 nM.

With `S=C(NCCc1ccccn1)Nc1ccc(Br)cn1` [Trovirdine, reference compound], the IC50 in the data set with HIV-1 strain HTLVIIIB was 7 nM. In data set [1], the CC50 amounted to 100000 nM.

`Cc1ccnc2c1NC(=O)c1cccnc1N2C1CC1` [Nevirapine, reference compound]: the IC50 in data set [2] (setting [5]) was 1400 nM; in the data set on HIV-1 strain A17 (Y181C) (setting [6]) it was 21400 nM.

For the compound `S=C(NCCOc1ccccc1)Nc1ccccn1` [Compound 8, N-[2-(Phenoxy)ethyl]-N′-[2-(pyridyl)]thiourea], in the data set on HIV-1 strain HTLVIIIB, the IC50 was found to be 5 nM. Further, the CC50 in data set [1] is 55000 nM.

For `CC1CCCCN1CCCNC(=S)Nc1ccc(Cl)cn1` (stereo not drawn) [Compound 7, N-[3-(2-methylpiperidinylpropyl)]-N′-[2-(5-chloropyridyl)]-thiourea], the melting point is 117 to 118 °C. The IC50 in the data set on HIV-1 strain HTLVIIIB (Human immunodeficiency virus 1) stood at 1 nM.

Consider `CC1CCCCN1CCNC(=S)Nc1ccc(Br)cn1` (stereo not drawn) [Compound 4, N-[2-(2-methylpiperidinylethyl)]-N′-[2-(5-bromopyridyl)]-thiourea], for which the “IC50 RT-MDR (V106A)” value in data set [2] (RT-MDR in H9 cells) is reported as “less active than nevirapine or delavirdine”. Moreover, the IC50 in data set [2] (setting [3]) is 1900 nM; in the data set with HIV-1 strain A17 (Y181C) (setting [4]) it was more than 100000 nM; with HIV-1 strain HTLVIIIB, less than 1 nM. In addition, in the data set with HIV-1 strain A17 (Y181C) (setting [4]), the “IC50 A17 (Y181C)” value is “not active”. For the same compound, the CC50 in data set [1] came to 50000 nM.

With `CC1CCCN(CCNC(=S)Nc2ccc(Br)cn2)C1` (stereo not drawn) [Compound 3, N-[2-(3-methylpiperidinylethyl)]-N′-[2-(5-bromopyridyl)]-thiourea], the IC50 with HIV-1 strain HTLVIIIB amounted to 80 nM.
